Several values for one entry are separate records, joined by “and”; a condition that tells them apart may be missing. Equal entries are not always repeated.
Biological target: T1, purified recombinant human PARP (Homo sapiens, UniProt P09874)
T1 construct: purchased Trevigan (Gaithersburg, Md.)
Assay: PARP enzyme assay (IC50), [3H]NAD incorporation
Assay type: biochemical
Conditions: approximate values, read-out: Inhibition IC50
Experimental: The reaction is initiated by incubating the mixture at 25° C. After 15 minutes of incubation, the reaction is terminated by adding 500 microliters of ice cold 20% (w/v) trichloroacetic acid. The precipitate formed is transferred onto a glass fiber filter (Packard Unifilter-GF/B) and washed three times with ethanol. After the filter is dried, the radioactivity is determined by scintillation counting.
Using the PARP assay described above, approximate IC50 (μM) values were obtained as shown in the following Table III, which also include specific embodiments of the compounds of the present invention: […]

T1 sequence (P09874 whole entry): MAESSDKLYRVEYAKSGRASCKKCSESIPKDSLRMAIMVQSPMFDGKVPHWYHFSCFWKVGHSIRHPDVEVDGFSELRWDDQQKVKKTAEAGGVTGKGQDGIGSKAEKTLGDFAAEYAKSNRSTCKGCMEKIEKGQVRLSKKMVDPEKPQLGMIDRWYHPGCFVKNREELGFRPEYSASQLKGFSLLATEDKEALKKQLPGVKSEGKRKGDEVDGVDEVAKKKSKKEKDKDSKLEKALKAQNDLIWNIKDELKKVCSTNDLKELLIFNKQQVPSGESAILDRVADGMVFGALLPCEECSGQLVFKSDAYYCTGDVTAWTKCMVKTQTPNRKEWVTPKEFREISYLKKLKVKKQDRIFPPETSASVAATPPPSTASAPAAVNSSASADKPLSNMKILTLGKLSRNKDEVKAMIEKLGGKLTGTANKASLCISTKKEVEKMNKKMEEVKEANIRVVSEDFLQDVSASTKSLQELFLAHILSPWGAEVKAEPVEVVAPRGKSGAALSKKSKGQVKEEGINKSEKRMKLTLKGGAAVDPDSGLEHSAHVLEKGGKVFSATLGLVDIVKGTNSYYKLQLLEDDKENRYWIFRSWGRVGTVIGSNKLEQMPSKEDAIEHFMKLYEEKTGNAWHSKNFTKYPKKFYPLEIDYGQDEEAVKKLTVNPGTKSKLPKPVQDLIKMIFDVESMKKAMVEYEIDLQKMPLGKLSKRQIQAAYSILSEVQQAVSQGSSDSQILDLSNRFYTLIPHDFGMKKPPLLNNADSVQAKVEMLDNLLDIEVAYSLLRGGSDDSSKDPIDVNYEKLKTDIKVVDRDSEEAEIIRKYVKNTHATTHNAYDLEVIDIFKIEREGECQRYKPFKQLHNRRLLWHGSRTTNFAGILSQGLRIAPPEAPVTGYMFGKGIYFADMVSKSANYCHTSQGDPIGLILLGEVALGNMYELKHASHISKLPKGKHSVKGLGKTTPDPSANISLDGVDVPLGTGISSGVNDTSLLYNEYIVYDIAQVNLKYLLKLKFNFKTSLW

Compound	IC50
O=c1[nH]c2cccc3c2c2c(cccc12)C3 [Compound 1, 5,9-dihydro-4[H]cyclopenta[lmn]phenathridin-5-one]	0.1 µM
O=c1[nH]c2ccc(S(=O)(=O)O)c3c2c2c(cccc12)C3 [Compound 2, 5,9-Dihydro-5-oxo-4[H]cyclopenta[lmn]phenathridine-1-sulfonic acid]	0.11 µM
O=c1[nH]c2ccc([N+](=O)[O-])c3c2c2c(cccc12)C3 [Compound 4, 5,9-dihydro-1-nitro-4[H]cyclopenta[lmn]phenathridin-5-one]	0.111 µM
O=c1[nH]c2ccc(S(=O)(=O)N3CCN(c4ccccn4)CC3)c3c2c2c(cccc12)C3 [Compound 6]	0.38 µM
CN1CCN(S(=O)(=O)c2ccc3[nH]c(=O)c4cccc5c4c3c2C5)CC1 [Compound 9, 5,9-Dihydro-1-[(4-methyl-1-piperazinyl)sulfonyl]-4[H]cyclopenta[lmn]phenathridin-5-one]	0.13 µM
O=C(Nc1ccc2[nH]c(=O)c3cccc4c3c2c1C4)c1cccc(F)c1 [Compound 14, N-(5,9-Dihydro-5-oxo-4[H]cyclopenta[lmn]phenathridin-1-yl)-3-fluorbenzamide]	0.08 µM
O=c1[nH]c2cccc3c2c2c(cccc12)C3O (centres unmarked) [Compound 18]	0.12 µM
O=c1[nH]c2cc(F)cc3c2c2c(cc(F)cc12)C3O (centres unmarked) [Compound 19]	0.1 µM
CC(=O)OC1c2cccc3[nH]c(=O)c4cccc1c4c23 (centres unmarked) [Compound 20]	0.81 µM
CC(=O)OC1c2cc(F)cc3[nH]c(=O)c4cc(F)cc1c4c23 (centres unmarked) [Compound 21, 5,9-Dihydro-2,7-difluoro-5-oxo-4[H]cyclopenta[lmn]phenathridin-9-yl acetate]	0.36 µM

Next, values leading:

IC50	Compound
0.07 µM	O=c1[nH]c2ccc(S(=O)(=O)NCCN3CCOCC3)c3c2c2c(cccc12)C3 [Compound 8, 5,9-Dihydro-N-[2-(4-morpholinyl)ethyl]-1-oxo-[H]cyclopenta[lmn]phenathridine-1-sulfonamide]
0.07 µM	O=c1[nH]c2ccc(S(=O)(=O)NCCc3ccncc3)c3c2c2c(cccc12)C3 [Compound 10]
0.07 µM	O=c1[nH]c2cccc3c(=O)c4cccc1c4c23 [Compound 16, 9-oxo-5,9-dihydro-4[H]cyclopenta[lmn]phenathridin-5-one]
0.07 µM	N-(5,9-Dihydro-5-oxo-4[H]cyclopenta[lmn]phenathridin-1-yl)-4-fluorbenzamide [Compound 15]
0.06 µM	Nc1ccc2[nH]c(=O)c3cccc4c3c2c1C4 [Compound 5, 5,9-dihydro-1-amino-4[H]cyclopenta[lmn]phenathridin-5-one]
0.05 µM	O=c1[nH]c2ccc(S(=O)(=O)NCCN3CCCCC3)c3c2c2c(cccc12)C3 [Compound 11, 5,9-Dihydro-5-oxo-N-[2-(1-piperidinyl)ethyl]-4[H]cyclopenta[lmn]phenathridine-1-sulfonamide]
0.05 µM	CC(=O)Nc1ccc2[nH]c(=O)c3cccc4c3c2c1C4 [Compound 13, 5,9-Dihydro-5-oxo-4[H]cyclopenta[mn]phenathridin-1-yl acetamide]
0.04 µM	O=c1[nH]c2ccc(S(=O)(=O)N3CCOCC3)c3c2c2c(cccc12)C3 [Compound 12, 5,9-Dihydro-1-(4-morpholinylsulfonyl)-4[H]cyclopenta[lmn]phenathridin-5-one]
0.03 µM	O=c1[nH]c2cc(F)cc3c(=O)c4cc(F)cc1c4c23 [Compound 17]
0.02 µM	O=c1[nH]c2cc(Cl)cc3[nH]c4cc(Cl)cc1c4c23 [Compound 22, 2,7,-Dichloro-5,9-dihydro-4[H]pyrrol[2,3,4,5-lmn]phenathridin-5-one]

Tested on: MSU crystal-induced neutrophil recruitment
Assay: Gout model: MSU crystal-induced neutrophil recruitment (peritonitis)
Assay type: in vivo, mouse
Conditions: 45 mg/kg i.p. 1 h prior to 3 mg MSU crystals; 6 h; group C, n=8; vehicle group B 6.30 ± 0.33
Experimental: Male outbread Swiss albino mice (20-22 g body weight) were purchased from Banton and Kingsman (T.O. strain; Hull, Humberside) and maintained on a standard chow pellet diet with tap water ad libitum and a 12:00 h light/dark cycle. All animals were housed for 1 week prior to experimentation to allow body weight to reach 28-30 g.
1,11b-dihydrobenzopyrano[4,3,2-de ]isoquinolin-1-one was dissolved in 100% DMSO at room temperature at a concentration of 45 mg in 2 ml. The compound was then injected into the peritoneal cavity, so as each mouse received a single dose corresponding to 45 mg/2 ml/kg (e.g. 60 μl for a mouse of 30 g). Control mice received DMSO at 2 ml/kg i.p. A third group of mice which were left untreated were added to control for potential effects of the vehicle. The study involved therefore, the following three groups: group A, untreated mice, n=6, group B, DMSO-treated mice, n=8, and group C, mice treated with 1,11b-dihydrobenzopyrano[4,3,2-de ]isoquinolin-1-one, n=8.
MSU crystal-induced neutrophil recruitment was tested as follows. In all cases, mice were treated 1 h after the treatment noted above, with MSU crystals. A homogenous suspension of MSU crystals was obtained by a 30 min rotation. Peritonitis was induced by injection of 3 mg MSU crystals in 0.5 ml PBS (0.1 M, pH 7.4), and the recruitment of neutrophils into the cavity evaluated at the 6 h time point (Getting, et al., 1997, J. Pharmacol. Exp. Ther. 283: 123-130). Animals were then euthanised by CO2 exposure and the peritoneal cavity washed with 3 ml of PBS supplemented with 3 mM EDTA and 25 U/ml heparin.
An aliquot (100 μl) of the lavage fluid was then diluted 1:10 in Turk's solution (0.01% crystal violet in 3% acetic acid). The samples were then vortexed and 10 μl of the stained cell solution were placed in a Neubauer haematocymometer and neutrophils numbers counted using a light microscope (Olympus B061). […]
Data are shown for single mice, and also shown as mean±S.E. of (n) mice per group. Statistical differences were determined by ANOVA, plus Bonferroni test. […]

Compound	Neutrophils (mean ± S.E.)
O=C1N=Cc2cccc3c2C1c1ccccc1O3 (centres unmarked) [1,11b-dihydrobenzopyrano[4,3,2-de]isoquinolin-1-one]	2.85 ± 0.34 (8)* 10^6 per mouse

Same assay, conditions: 45 mg/kg i.p. 1 h prior to 3 mg MSU crystals; peritoneal lavage at 6 h; group C, one value per mouse

Compound	Neutrophil Numbers (single mice)
O=C1N=Cc2cccc3c2C1c1ccccc1O3 (centres unmarked) [1,11b-dihydrobenzopyrano[4,3,2-de]isoquinolin-1-one]	2.4 10^6 per mouse (2×) and 3.0 10^6 per mouse (2×) and 2.7 10^6 per mouse and 2.1 10^6 per mouse (2×) and 5.1 10^6 per mouse

Same assay, conditions: 45 mg/kg i.p.; 6 h after MSU crystals

Compound	inhibition of cell influx vs. the vehicle group
O=C1N=Cc2cccc3c2C1c1ccccc1O3 (centres unmarked) [1,11b-dihydrobenzopyrano[4,3,2-de]isoquinolin-1-one]	55%

Tested on: ischemia and reperfusion of the heart
Assay: not given
Conditions: rabbit; single injection 1 mg/kg; cited from earlier work

Compound	reduction in infarct size
Oc1cccc2c(O)nccc12 [1,5-dihydroxyisoquinoline]	38-48%

Same assay, conditions: rabbit; single injection 10 mg/kg, one minute before occlusion or before reperfusion; cited from earlier work

Compound	reduction in infarct size in the heart
NC(=O)c1cccc(N)c1 [3-amino-benzamide]	32-42%

Tested on: PARP
Assay: not given
Conditions: read-out: IC50 for inhibiting PARP; reported by Suto et al.; cited from earlier work

Compound	IC50
O=C1NCCc2c(OCCCCN3CCCCC3)cccc21 [DPQ, 3,4-dihydro-5-[4-(1-piperidinyl)-butoxy]-1(2H)-isoquinolinone]	0.04 µM

From patent US6545011B2, “Substituted 4,9-dihydrocyclopenta[imn]phenanthridine-5-ones, derivatives thereof and their uses” (Guilford Pharmaceuticals Inc., priority 2000, dated 2003)
